How the values were obtained:
hGPR37L1 = target: T1, hGPR37L1 (Homo sapiens, UniProt O60883); test: cAMP BRET assay in HEK293 cells co-transfected with GPR37L1 and cAMP BRET cDNAs; type: cell-based; settings: 10 nM
T1 sequence (O60883 26-481): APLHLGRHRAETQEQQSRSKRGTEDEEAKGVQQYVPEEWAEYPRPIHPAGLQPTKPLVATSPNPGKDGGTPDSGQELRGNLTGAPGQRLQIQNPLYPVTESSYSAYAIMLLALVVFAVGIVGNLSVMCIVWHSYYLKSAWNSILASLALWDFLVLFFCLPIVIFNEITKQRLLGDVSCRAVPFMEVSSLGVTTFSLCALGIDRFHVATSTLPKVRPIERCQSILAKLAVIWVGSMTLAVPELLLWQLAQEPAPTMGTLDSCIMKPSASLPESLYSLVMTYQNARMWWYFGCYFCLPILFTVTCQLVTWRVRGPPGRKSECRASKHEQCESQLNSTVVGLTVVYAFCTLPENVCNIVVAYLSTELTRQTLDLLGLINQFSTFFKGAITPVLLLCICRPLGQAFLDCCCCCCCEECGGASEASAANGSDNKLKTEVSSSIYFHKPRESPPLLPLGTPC
Description: cAMP BRET assay: To detect cAMP change after GPCR37L1 activation, we transfected a Nano-lantern cAMP plasmid (1 μg) and human GPR37L1-tango plasmid (1 μg) into HEK-293 cells. BRET activity was measured upon the addition of 100 μl/well for a final concentration of 10 μM Coelenterazine (Santa Cruz Biotechnology, Dallas, TX), 10 nM MaR1, DHA or vehicle, and 100 μM forskolin (Enzo Life Sciences (Farmingdale, NY), #BML-CN100). The luminescent activity was measured using an Infinite F200 Pro Illuminometer (Tecan Trading AG, Switzerland). The luminescent activity was normalized to basal signal levels.
Eight different concentrations of compounds ranging from 0.1 nM to 100 nM were tested.

[1] = test system: Kir4.1 potassium channels in SGCs; test: Patch-clamp recordings of K+ currents in SGCs of whole-mount DRG; type: cell-based, mouse
Description: Patch-clamp recordings in SGCs of whole-mount DRG: Under urethane anesthesia, mice were rapidly euthanized, followed by careful isolation of lumbar DRGs placed in the oxygenated artificial cerebral spinal fluid (aCSF). DRGs were briefly digested (20 min) using an enzymatic mixture consisting of collagenase A (1 mg/mL) and 0.32 mL Trypsin (0.25% original solution). Intact DRG were then incubated in aCSF oxygenated with 95% O2 and 5% CO2 at 34° C. Following incubation, DRG were transferred to a recording chamber. Isolated DRGs were transferred to a recording chamber continuously perfused (˜3 ml/min) with aCSF. SGCs in whole mouse DRGs could be visualized using a 40× water-immersion objective on an Olympus BX51WI microscope (Olympus Corp., Shinjuku, Japan). The round or fusiform-shaped cell bodies of SGCs were small (<10 μm) but visible near the edges of DRG neurons. Patch pipettes (Chase Scientific Glass Inc., Ramsey, MN) were pulled and filled with a pipette solution containing: 126 mM potassium gluconate, 10 mM NaCl, 1 mM MgCl2, 10 mM EGTA, 2 mM Na-ATP, and 0.1 mM Mg-GTP, adjusted to pH 7.3 with KOH. The resistance of pipettes was 10-12 MΩ. A Whole-cell patch-clamp configuration was made on SGCs at room temperature using a Multiclamp 700B amplifier (Axon Instruments, Union City, CA). Under voltage clamp, at a holding potential of −80 mV, inward or outward currents are triggered by voltage steps of −160 to +40 mV, with 20 mV increment in 200 ms (H. Zhang et al., Altered functional properties of satellite glial cells in compressed spinal ganglia. Glia 57, 1588-1599 (2009)). To isolate inwardly rectifying potassium current (Kir), potassium currents from the same cells were recorded in the absence and presence of 100 μM extracellular barium, which blocks the Kir4.1 channel (C. A. Doupnik, et al, The inward rectifier potassium channel family. Curr Opin Neurobiol 5, 268-277 (1995); X. Tong et al., Astrocyte Kir4.1 ion channel deficits contribute to neuronal dysfunction in Huntington's disease model mice. Nat Neurosci 17, 694-703 (2014)). The Kir4.1 currents were obtained by digitally subtracting those currents in the absence and presence of barium.
Kir4.1 potassium channels are the predominant potassium channels in SGCs and are chiefly responsible for the potassium currents in SGCs. Dysregulation of SGC Kir4.1 contributes to the pathogenesis of pain (M. Hanani, D. C. Spray, Emerging importance of satellite glia in nervous system function and dysfunction. Nat Rev Neurosci 21, 485-498 (2020)). SGC K^+ currents were recorded by conducting patch-clamp recordings in SGCs in whole-mount DRG preparation (data not shown; see U.S. Prov. No. 63/270,198, FIG. 7A), collected from WT mice, Gpr37l1^+/+ mice, and Gpr37l1^+/− mutant mice (FIG. 11A parts A-C).

In the case of CC/C=C\C/C=C\C[C@H](O)\C=C/C=C/C=C/[C@H](O)C/C=C\CCC(=O)O [MaR1, Maresin 1], the “inhibition of forskolin-induced cAMP production” value (hGPR37L1) was “significantly inhibited”, the “effect on PTX-induced downregulation of K+ currents in SGCs” value ([1]; 100 ng/ml co-applied with PTX, Gpr37l1+/+ DRG) was “significantly rescued” and the “effect on K+ currents in SGCs” value ([1]; 100 ng/ml with PTX, Gpr37l1 mutant (Gpr37l1+/−) DRG) was “completely abolished”.

From patent US20250000834A1, “COMPOSITIONS AND METHODS FOR TARGETING GPCR FOR THE PREVENTION AND TREATMENT OF PAIN” (Duke University, priority 2021, published 2025)
